One series has as its system fungi. Put plainly: Biological properties of mimosamycin: activity against fungi. Conditions: at a concentration of 50 μg/ml. Format: cell-based.
Series [1] relates to highly streptomycin-resistant strains of human tubercle bacilli. It is filed as cell-based. The note with it: compared with normal strains of tubercle bacilli.
Series [2] deals with Mycobacterium smegmatis ATCC607. Put plainly: Antimicrobial activity of mimosamycin (Table 4). The note with it: Mycolicibacterium smegmatis, ATCC607, 48 h.
The nature of a further series: Solubility. Format: physicochemical.
A further series deals with gram-positive bacteria. Put plainly: Biological properties of mimosamycin: activity against gram-positive bacteria. Format: cell-based.
For series [3], the system named is Mycobacterium bovis No. 10. Put plainly: microbe, parasite or virus in culture. Format: cell-based. The note with it: Mycobacterium tuberculosis variant bovis, NO.10, 672 h.
In a further series the test system is gram-negative bacteria. Put plainly: Biological properties of mimosamycin: activity against gram-negative bacteria. Format: cell-based. Conditions: at a concentration of 50 μg/ml.
The next series concerns acid-fast bacteria. Put plainly: Biological properties of mimosamycin: activity against acid-fast bacteria. Format: cell-based.
In a further series the test system is tubercle bacilli. Put plainly: Activity of mimosamycin against tubercle bacilli (in words). It is filed as cell-based.

Values after ≈ are worked out from the molar mass of the structure shown.

Turning to `COC1=C(C)C(=O)c2cc(=O)n(C)cc2C1=O` [Mimosamycin], the activity against fungi result in the series on fungi is “non-effective”. In addition, in [1], the “activity against highly streptomycin-resistant strains of human tubercle bacilli” value is recorded as “effective against highly streptomycin-resistant strains of human tubercle bacilli as is against normal strains of tubercle bacilli”. Besides, the MIC in series [2] is 25 µg/mL (≈ 107 µM); in series [3] it was 6.25 µg/mL (≈ 26.8 µM). The Solubility result in the series “Solubility” (in ethyl ether, n-hexane) is listed as “Sparingly soluble”; in the series “Solubility” (in methanol, ethanol, chloroform, esters, acetone), “Easily soluble”; in “Solubility” (in water) it was “Insoluble”. Also, the “activity against gram-positive bacteria” value in the series with gram-positive bacteria is listed as “active against gram-positive bacteria to a certain extent”. Moreover, the “activity against gram-negative bacteria” value with gram-negative bacteria was “non-effective”. Further, the “activity against acid-fast bacteria” value with acid-fast bacteria is “active against acid-fast bacteria”. For the same compound, the “activity against tubercle bacilli” value in the series on tubercle bacilli was “specifically effective against tubercle bacilli”.

Values taken from patent US4127446A, “Process for producing antibiotics mimosamycin and chlorocarcins A, B and C” (priority 1975, dated 1978).
